The subject of experiment [1] is hypertensive reaction by angiotensin I. The experiment can be described thus: Effect against hypertensive activity of angiotensin I in rats, intravenous administration. The experiment is classed as in vivo, rats (Sprague-Dawley). To be noted: 300 μg/kg i.v., male rats. Here is the method:
(§1) Effect of the Compounds of the Present Invention against Hypertensive Activity of Angiotensin I.
Male rats (Sprague-Dawley) weighing 300 to 400 g which were fed under free access to drinking water and feed were used as experimental animals. The rats were anesthetized with intraperitoneal administration of pentobarbital sodium (50 mg/kg) on the day before the test day and a polyethylene tube was inserted into each of the femoral artery for measurement of blood pressure and the femoral vein for injection of angiotensin I and II. And the tubes were fixed.
On the test day, an average blood pressure in the control phase was measured by an electric hemodynamometer (MPU-0.5-290-0-III model manufactured by NEC-Sanei, Japan) and recorded by a polygraph (NEC-Sanei, Type 365 or Nippon Kohden Type RM-45, and thereafter angiotensin I and then angiotensin II were injected through the femoral vein at a dose of 300 ng/kg and 100 ng/kg, respectively, to measure the hypertensive activity. […] In calculating the percent inhibition to the hypertensive activity of angiotensin I, the percent inhibitory value was corrected based on the variation with time in the hypertensive reaction by antiotensin II.

Experiment [2] concerns the target T1, Angiotensin I Converting Enzyme (ACE) (Oryctolagus cuniculus, UniProt P12822).
T1 sequence (P12822 34-1310): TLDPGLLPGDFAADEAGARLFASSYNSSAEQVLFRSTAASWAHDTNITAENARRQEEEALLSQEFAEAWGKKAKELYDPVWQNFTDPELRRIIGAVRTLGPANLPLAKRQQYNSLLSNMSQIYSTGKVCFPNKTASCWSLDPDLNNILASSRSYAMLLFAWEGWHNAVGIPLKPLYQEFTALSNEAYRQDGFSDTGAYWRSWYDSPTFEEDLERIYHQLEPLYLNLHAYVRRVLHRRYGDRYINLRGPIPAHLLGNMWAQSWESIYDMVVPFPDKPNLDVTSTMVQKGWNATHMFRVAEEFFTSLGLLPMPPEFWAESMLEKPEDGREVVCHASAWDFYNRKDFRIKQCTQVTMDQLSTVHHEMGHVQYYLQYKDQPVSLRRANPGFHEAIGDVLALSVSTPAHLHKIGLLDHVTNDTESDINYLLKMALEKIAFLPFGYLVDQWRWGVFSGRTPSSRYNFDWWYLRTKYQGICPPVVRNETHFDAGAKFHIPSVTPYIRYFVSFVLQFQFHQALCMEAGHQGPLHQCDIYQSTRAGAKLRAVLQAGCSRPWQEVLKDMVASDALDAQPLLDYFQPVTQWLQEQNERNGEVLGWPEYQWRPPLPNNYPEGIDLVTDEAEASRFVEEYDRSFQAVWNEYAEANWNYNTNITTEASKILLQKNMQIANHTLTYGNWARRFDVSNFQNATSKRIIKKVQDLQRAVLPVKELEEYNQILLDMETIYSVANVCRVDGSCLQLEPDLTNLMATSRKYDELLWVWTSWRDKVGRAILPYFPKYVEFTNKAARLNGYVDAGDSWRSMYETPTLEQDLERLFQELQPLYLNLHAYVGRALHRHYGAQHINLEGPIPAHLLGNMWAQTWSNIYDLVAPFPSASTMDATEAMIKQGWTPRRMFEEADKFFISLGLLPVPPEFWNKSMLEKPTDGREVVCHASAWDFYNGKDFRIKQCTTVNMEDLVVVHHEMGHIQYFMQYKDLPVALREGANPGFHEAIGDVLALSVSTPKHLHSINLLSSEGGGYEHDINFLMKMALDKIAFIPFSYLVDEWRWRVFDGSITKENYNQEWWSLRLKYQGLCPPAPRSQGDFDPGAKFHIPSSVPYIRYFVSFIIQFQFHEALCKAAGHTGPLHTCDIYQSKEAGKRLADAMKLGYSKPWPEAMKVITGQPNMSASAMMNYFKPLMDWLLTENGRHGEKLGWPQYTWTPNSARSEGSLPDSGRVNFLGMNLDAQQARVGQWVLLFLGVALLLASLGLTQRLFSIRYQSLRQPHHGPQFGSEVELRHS
Briefly: Inhibition of Angiotensin I Converting Enzyme (ACE), HHL substrate, modified Cushman method. The experiment is classed as biochemical. The note with it: read-out: ACE inhibitory activity (%); for inhibition at 1 µM: concentration 1 μM. Here is the method: Experiment on Inhibition of Angiotensin I Converting Enzyme (ACE) by the Compounds of this Invention. […] That is, using hippuryl-L-histidyl-L-leucine (HHL) as the substrate, the ACE inhibitory activity was determined in terms of percent inhibition on the amount of hippuric acid produced by ACE when the compound of the present invention was added. […] In this experiment, a borate-HCl buffer solution containing dimethylsulfoxide at a concentration equal to that of the test solution was used as a control. After warming the solution at 37° C. for 1 hour, 150 μl of 1N hydrochloric acid was added to the solution to terminate the reaction. After 0.8 ml of ethyl acetate was added the solution was centrifuged at 11500 rpm for 2 minutes. A 0.5 ml aliquot was separated from the ethyl acetate layer and dried at a temperature below 40° C. under nitrogen gas streams. The residue was mixed thoroughly with 4.5 ml of distilled water, and the mixture was subjected to colorimetry at a wavelength of 228 nm.

Experiment [3] deals with hypertensive reaction by angiotensin I. Briefly: Effect against hypertensive activity of angiotensin I in rats, oral administration. To be noted: male rats. The experiment is classed as in vivo, rats (Sprague-Dawley). Here is the method:
as §1
Male rats (Sprague-Dawley) weighing 250 to 350 g which were fed under free access to drinking water and feed were used as experimental animals. The rats were anesthetized with intraperitoneal administration of pentobarbital sodium (50 mg/kg) on the day before the test day and a polyethylene tube was inserted into each of the femoral artery for measurement of blood pressure and the femoral vein for injection of angiotensin I and II. And the tubes were fixed.
On the test day, an average blood pressure in the control phase was measured by an electric hemodynamometer (MPU-0.5-290-0-III model manufactured by NEC-Sanei, Japan) and recorded by a polygraph (NEC-Sanei, Type 365 or Nippon Kohden Type RM-45), and thereafter angiotensin I and then angiotensin II were injected through the femoral vein at a dose of 300 ng/kg and 100 ng/kg, respectively, to measure the hypertensive activity. Then, 3 and 10 mg/kg of the compound of the present invention were administered orally as an aqueous solution or an aqueous gum arabic suspension, and 20, 60 and 120 minutes after the administration, angiotensin I and II were injected repeatedly to trace hypertensive reactions. In calculating the percent inhibition to the hypertensive activity of angiotensin I, the percent inhibitory value was corrected based on the variation with time in the hypertensive reaction by angiotensin II.

The mark [4] stands for this setting: 10 mg/kg orally, after 120 min.

Molecules are shown by their SMILES. Structures can show the parent of a compound that is named as a salt. Where two headings read alike, the source gives them in different places.

`NCCCCCC[C@H](N[C@H]1CSc2ccccc2N(CC(=O)O)C1=O)C(=O)O` [H]: the “Inhibition against hypertensive reaction by angiotensin I (%)” value (from here on “Inhibition … (%)”) is on record as 100% in experiment [1] (after 5 min); 97% in experiment [1] (after 10 min); 97% in experiment [1] (after 30 min); 91% in experiment [1] (after 60 min); 78% in experiment [1] (after 90 min); 48% in experiment [1] (after 120 min).

With `O=C(O)CN1C(=O)[C@@H](N[C@@H](CCC2CCCCC2)C(=O)O)CSc2ccccc21` [Example 50, 3(R)-[1(S)-carboxy-3-cyclohexylpropyl]amino-4-oxo-2,3,4,5-tetrahydro-1,5-benzothiazepine-5-acetic acid], the inhibition at 0.01 µM in experiment [2] (concentration 0.01 μM) is 77%. The inhibition at 0.1 µM in experiment [2] (concentration 0.1 μM) is 96%.

Consider `NCCCCCC[C@H](N[C@H]1CSc2ccccc2N(CC(=O)O)C1=O)C(=O)O` [Example 73, 3(R)-[7-amino-1(S)-carboxyheptyl]amino-4-oxo-2,3,4,5-tetrahydro-1,5-benzothiazepine-5-acetic acid], for which the inhibition at 0.1 µM in experiment [2] (concentration 0.1 μM) worked out at 96%. Besides, the inhibition at 1 µM in experiment [2] was 100%.

For the compound `NCCCC[C@H](N[C@H]1CSc2ccccc2N(CC(=O)O)C1=O)C(=O)O` [Example 60, 3(R)-[5-amino-1(S)-carboxypentyl]amino-4-oxo-2,3,4,5-tetrahydro-1,5-benzothiazepine-5-acetic acid], the inhibition at 0.1 µM in experiment [2] (concentration 0.1 μM) stood at 82%. For the same compound, the inhibition at 1 µM in experiment [2] turned out to be 98%.

As to `O=C(O)CN1C(=O)[C@@H](N[C@H](CCc2ccccc2)C(=O)O)CSc2ccccc21` [Example 12, 3(R)-[1(R)-carboxy-3-phenylpropyl]amino-4-2,3,4,5-tetrahydro-1,5-benzothiazepine-5-acetic acid disodium salt], the inhibition at 1 µM in experiment [2] is 50%. The inhibition at 10 µM in experiment [2] (concentration 10 μM) worked out at 86%.

For `CCOC(=O)[C@H](CCc1ccccc1)N[C@H]1CSc2ccccc2N(CC(=O)O)C1=O.Cl` [Example 7, 3(R)-[1(S)-ethoxycarbonyl-3-phenylpropyl]amino-4-oxo-2,3,4,5-tetrahydro-1,5-benzothiazepine-5-acetic acid hydrochloride], in experiment [2] (concentration 0.1 μM), the inhibition at 0.1 µM worked out at 53%. Besides, the inhibition at 1 µM in experiment [2] came out at 86%. In addition, the “Inhibition … (%)” value in experiment [3] (3 mg/kg orally, after 20 min.) was determined as 85%; in experiment [3] (3 mg/kg orally, after 60 min.), 51%; in experiment [3] (3 mg/kg orally, after 120 min.) it was 27%; in experiment [3] (10 mg/kg orally, after 20 min.), 85%; in experiment [3] (10 mg/kg orally, after 60 min.) it was 68%; in experiment [3] (setting [4]) it was 51%.

Regarding `CCOC(=O)[C@H](CCCCCCN)N[C@H]1CSc2ccccc2N(CC(=O)O)C1=O` [C2 H5], the “Inhibition … (%)” value in experiment [1] (after 5 min) is 97%; in experiment [1] (after 10 min) it was 97%; in experiment [1] (after 30 min), 100%; in experiment [1] (after 60 min) it was 96%; in experiment [1] (after 90 min), 87%; in experiment [1] (after 120 min) it was 73%.

In the case of `CCOC(=O)[C@H](CCC1CCCCC1)N[C@H]1CSc2ccccc2N(CC(=O)O)C1=O.Cl` [Example 9, 3(R)-[1(S)-ethoxycarbonyl-3-cyclohexylpropyl]amino-4-oxo-2,3,4,5-tetrahydro-1,5-benzothiazepine-5-acetic acid hydrochloride], the inhibition at 0.1 µM in experiment [2] (concentration 0.1 μM) was found to be 83%. Moreover, the inhibition at 1 µM in experiment [2] amounted to 95%. Also, the “Inhibition … (%)” value in experiment [3] (3 mg/kg orally, after 20 min.) is on record as 66%; in experiment [3] (3 mg/kg orally, after 60 min.), 36%; in experiment [3] (3 mg/kg orally, after 120 min.), 12%; in experiment [3] (10 mg/kg orally, after 20 min.), 92%; in experiment [3] (10 mg/kg orally, after 60 min.), 72%; in experiment [3] (setting [4]), 68%.

Take `CCOC(=O)C(CCc1ccccc1)N[C@H]1CSc2ccccc2N(CC(=O)O)C1=O` (some centres unmarked) [Example 6]: the inhibition at 0.1 µM in experiment [2] (concentration 0.1 μM) came out at 48%. For the same compound, the inhibition at 1 µM in experiment [2] came to 85%.

Consider `O=C(O)CN1C(=O)[C@@H](N[C@@H](CCc2ccccc2)C(=O)O)CSc2ccccc21` [Example 13, 3(R)-[1(S)-carboxy-3-phenylpropyl]amino-4-oxo-2,3,4,5-tetrahydro-1,5-benzothiazepine-5-acetic acid monosodium salt], for which, in experiment [2], the inhibition at 0.01 µM was 46% and the inhibition at 0.1 µM came out at 91%.

Turning to `CCOC(=O)[C@@H](CCc1ccccc1)N[C@H]1CSc2ccccc2N(CC(=O)O)C1=O` [Example 5, 3(R)-[1(R)-ethoxycarbonyl-3-phenylpropyl]amino-4-oxo-2,3,4,5-tetrahydro-1,5-benzothiazepine-5-acetic acid hydrochloride], the inhibition at 0.1 µM in experiment [2] (concentration 0.1 μM) was found to be 40%. Besides, the inhibition at 1 µM in experiment [2] turned out to be 84%.

On to `O=C(O)CN1C(=O)[C@@H](N[C@@H](CCCCNC2CCCCC2)C(=O)O)CSc2ccccc21` [Example 69, 3(R)-[1(S)-carboxy-5-cyclohexylaminopentyl]amino-4-oxo-2,3,4,5-tetrahydro-1,5-benzothiazepine-5-acetic acid], for which the inhibition at 0.1 µM in experiment [2] (concentration 0.1 μM) came out at 93%. The inhibition at 1 µM in experiment [2] came to 100%.

Values taken from patent publication US4564612A, “Condensed, seven-membered ring compounds and their use” (Takeda Chemical Industries, Ltd., priority 1983, dated 1986).
